Results published in article PMC12897534, “Design, synthesis, and antiproliferative activity of new 5-ethylsulfonyl-indazole-3-carbohydrazides as dual EGFR/VEGFR-2 kinases inhibitors” (Journal of Enzyme Inhibition and Medicinal Chemistry, 2025).
Several values for one entry are separate records, joined by “and”; a condition that tells them apart may be missing. Identical values can stand only once. Like-named read-outs stand apart in the source and are kept apart here.

What was measured:
[1] = test system: A-549 (lung) cancer cell line; experiment: Antiproliferative assay, A-549; type: cell-based, human; conditions: read-out: Antiproliferative activity IC50 ± SEM, A-549
Procedure: (§1) Table 1 presents the median inhibitory concentration (IC50) and GI50 (mean IC50) for the four cancer cell lines.
(§2) Refer to Appendix A for additional information.
(§3) To explore the antiproliferative potential of compounds propidium iodide fluorescence assay was performed using different cell lines such as Panc-1 (pancreas cancer cell line) [Panc-1-CTC (RRID:CVCL_VQ69)], MCF-7 (breast cancer cell line) [MCF-7 (RRID:CVCL_0031)], HT-29 (colon cancer cell line) [HT-29 (RRID:CVCL_0320)] and A-549 (epithelial cancer cell line)[A-549 (RRID:CVCL_0023)], respectively. All cell lines were obtained from ATCC (American Type Cell Culture).
(§4) To calculate the total nuclear DNA, a fluorescent dye (propidium iodide, PI) is used which can attach to the DNA, thus offering a quick and precise technique. PI cannot pass through the cell membrane and its signal intensity can be considered as directly proportional to quantity of cellular DNA. Cells whose cell membranes are damaged or have changed permeability are counted as dead ones. The assay was performed by seeding the cells of different cell lines at a density of 3000-7500 cells/well (in 200 μl medium) in culture plates followed by incubation for 24 h at 37 °C in humidified 5% CO2 /95% air atmospheric conditions. The medium was removed; the compounds were added to the plates at 10 μM concentrations (in 0.1% DMSO) in triplicates, followed by incubation for 48 h. DMSO (0.1%) was used as control. After incubation, medium was removed followed by the addition of PI (25 μl, 50 μg/mL in water/medium) to each well of the plates. At -80 °C, the plates were allowed to freeze for 24 h, followed by thawing at 25 °C. A fluorometer (Polar-Star BMG Tech) was used to record the readings at excitation and emission wavelengths of 530 and 620 nm for each well. The percentage cytotoxicity of compounds was calculated using the following formula: […]

[2] = test system: MCF-7 (breast) cancer cell line; experiment: Antiproliferative assay, MCF-7; type: cell-based, human; conditions: for IC50: read-out: Antiproliferative activity IC50 ± SEM, MCF-7; for Fold more potent than erlotinib (MCF-7 IC50): MCF-7 IC50 ratio to erlotinib
Procedure: as §1, §2, §3, §4

[3] = test system: Panc-1 (pancreatic) cancer cell line; experiment: Antiproliferative assay, Panc-1; type: cell-based, human; conditions: read-out: Antiproliferative activity IC50 ± SEM, Panc-1
Procedure: as §1, §2, §3, §4

[4] = test system: HT-29 (colon) cancer cell line; experiment: Antiproliferative assay, HT-29; type: cell-based, human; conditions: read-out: Antiproliferative activity IC50 ± SEM, HT-29
Procedure: as §1, §2, §3, §4

[5] = test system: four cancer cell lines (A-549, MCF-7, Panc-1, HT-29); experiment: Antiproliferative assay, mean over the four cancer cell lines (GI50); type: cell-based, human; conditions: for IC50: mean IC50 of A-549, MCF-7, Panc-1, HT-29
Excerpt: as §1, §2
All cell lines were obtained from ATCC (American Type Cell Culture). […]

Bcl-2 = experiment: Apoptotic markers assay, Bcl-2 level in A-549 cells; type: cell-based, human; conditions: for Bcl-2 level: control 5
Procedure: (§5) The Bcl-2 protein family, comprising inducer proteins (Bax) and suppressor proteins (Bcl-2), primarily regulates apoptosis.
(§6) Appendix A gives more details.
Mix all the reagents thoroughly without foaming before use. Wash the microwells twice with approximately 300 μL Wash Buffer per well with thorough aspiration of microwell contents between washes. Take caution not to scratch the surface of the microwells. After the last wash, empty the wells and tap microwell strips on absorbent pad or paper towel to remove excess Wash Buffer. Use the microwell strips immediately after washing or place upside down on a wet absorbent paper for not longer than 15 minutes. […] Add 100 μL of Sample Diluent in duplicate to all standard wells and to the blank wells. Prepare standard (1:2 dilution) in duplicate ranging from 32 ng/mL to 0.5 ng/mL. Add 100 μL of Sample Diluent, in duplicate, to the blank wells. Add 80 μL of Sample Diluent, in duplicate, to the sample wells. Add 20 μL of each Sample, in duplicate, to the designated wells. Add 50 μL of diluted biotin-conjugate to all wells, including the blank wells. Cover with a plate cover and incubate at room temperature, on a microplate shaker at 100 rpm if available, for 2 hours. Remove plate cover and empty the wells. Wash microwell strips 3 times as described in step 2. Add 100 μL of diluted Streptavidin-HRP to all wells, including the blank wells. Cover with a plate cover and incubate at room temperature, on a microplate shaker at 100 rpm if available, for 1 hour. Remove the plate cover and empty the wells. Wash microwell strips 3 times as described in step 2. Proceed to the next step. Pipette 100 μl of mixed TMB Substrate Solution to all wells, including the blanks. Incubate the microwell strips at room temperature (18° to 25°C) for about 15 minutes, if available on a rotator set at 100 rpm. Avoid direct exposure to intense light. The point, at which the substrate reaction is stopped, is often determined by the ELISA reader. Many ELISA readers record absorbance only up to 2.0 O.D. Therefore, the color development within individual microwells must be watched by the person running the assay and the substrate reaction stopped before positive wells are no longer properly detectable. Stop the enzyme reaction by quickly pipetting 100 μL of Stop Solution into each well, including the blank wells. It is important that the Stop Solution is spread quickly and uniformly throughout the microwells to completely inactivate the enzyme. Results must be read immediately after the Stop Solution is added or within one hour if the microwell strips are stored at 2 - 8°C in the dark. Read the absorbance of each microwell on a spectrophotometer using 450 nm as the primary wavelength.

Bax = experiment: Apoptotic markers assay, Bax level in A-549 cells; type: cell-based, human; conditions: for Bax level: control 60; for Bax fold change: relative to untreated control
Procedure: as §5, §6
Bring all reagents, except the human Bax-α Standard, to room temperature for at least 30 minutes prior to opening. The human Bax-α Standard solution should not be left at room temperature for more than 10 minutes. All standards, controls and samples should be run in duplicate. Refer to the Assay Layout Sheet to determine the number of wells to be used and put any remaining wells with the desiccant back into the pouch and seal the ziploc. Store unused wells at 4 °C. Pipet 100 μL of Assay Buffer into the S0 (0 pg/mL standard) wells. Pipet 100 μL of Standards #1 through #6 into the appropriate wells. Pipet 100 μL of the Samples into the appropriate wells. Tap the plate gently to mix the contents. Seal the plate and incubate at room temperature on a plate shaker for 1 hour at ~500 rpm. Empty the contents of the wells and wash by adding 400 μL of wash solution to every well. Repeat the wash 4 more times for a total of 5 washes. After the final wash, empty or aspirate the wells and firmly tap the plate on a lint free paper towel to remove any remaining wash buffer. Pipet 100 μL of yellow Antibody into each well, except the Blank. Seal the plate and incubate at room temperature on a plate shaker for 1 hour at ~500 rpm. Empty the contents of the wells and wash by adding 400 μL of wash solution to every well. Repeat the wash 4 more times for a total of 5 washes. After the final wash, empty or aspirate the wells and firmly tap the plate on a lint free paper towel to remove any remaining wash buffer. Add 100 μL of blue Conjugate to each well, except the Blank. Seal the plate and incubate at room temperature on a plate shaker for 30 minutes at ~500 rpm. Empty the contents of the wells and wash by adding 400 μL of wash solution to every well. Repeat the wash 4 more times for a total of 5 washes. After the final wash, empty or aspirate the wells and firmly tap the plate on a lint free paper towel to remove any remaining wash buffer. Pipet 100 μL of Substrate Solution into each well. Incubate for 30 minutes at room temperature on a plate shaker at ~500 rpm. Pipet 100 μL Stop Solution to each well. Blank the plate reader against the Blank wells, read the optical density at 450 nm. Calculate the average net Optical Density (OD) bound for each standard and sample by subtracting the average Blank OD from the average OD for each standard and sample. Using linear graph paper, plot the Average Net OD for each standard versus Bax concentration in each standard. Approximate a straight line through the points. The concentration of Bax in the unknowns can be determined by interpolation.

p53 = experiment: Apoptotic markers assay, p53 level in A-549 cells; type: cell-based, human; conditions: control 65
Excerpt: as §5
A prime example of a gene product is the p53 protein, which affects apoptosis. The potential for p53 overexpression to induce apoptosis may elucidate the frequent deactivation of p53 enzymes by cancer cells during transformation.
as §6

EGFR = EGFR (Homo sapiens, UniProt P00533); experiment: EGFR-TK inhibitory assay
Procedure: To record autophosphorylation level, EGFR kinase assay was carried out on the basis of DELFIA/Time-Resolved Fluorometry. […] Each compound (10 μL) was incubated with recombinant enzyme (10 μL, 5 ng for EGFR, 1:80 dilution in 100 mM HEPES) for 10 min at 25 °C, subsequent to the addition of 5X buffer (10 μL, containing 2 mM MnCl2, 100 μM Na3VO4, 20 mM HEPES and 1 mM DTT) and ATP-MgCl2 (20 μL, containing 0.1 mM ATP and 50 mM MgCl2) and incubation for 1h. The negative and positive controls were included in each plate by the incubation of enzyme either with or without ATP-MgCl2. The liquid was removed after incubation and the plates were washed thrice using a wash buffer. The Europium-tagged antiphosphotyrosine antibody (75 μL, 400 ng) was added to each well followed by incubation of 1h and then washing of the plates using buffer. […] The autophosphorylation percentage inhibition by compounds was calculated using the following equation:
The majority of signals detected by antiphosphotyrosine antibody were from EGFR because the enzyme preparation contained low impurities.

VEGFR-2 = VEGFR-2 (Homo sapiens, UniProt P35968); experiment: VEGFR-2 kinase inhibitory assay
Procedure: Prepare all the solutions using autoclaved, deionized water and analytical grade reagents. Prepare and store all the reagents at room temperature (unless indicated otherwise). […] The assays used an ULight-labeled peptide substrate and a Europium-W1024-labeled antiphosphotyrosine antibody. The VEGFR-2 was purchased from Carna Biosciences, Inc. (New York, USA). The 384-well plates were obtained from PerkinElmer. […] Negative control: 2.5 μL/well 4×substrate/ATP mixture and 7.5 μL 1×kinase assay buffer in 384-well plate well. […] After incubation at room temperature and dark for 60 min, 5 μL 4×stop solution was added to corresponding wells to react for 5 min and then 5 μL 4×detection mix was added to the corresponding wells of a 384-well plate. The mixture was centrifugally mixed and stayed for 60 min at room temperature for color development. The plate was read using an Envision plate reader. The inhibition rate (%) = (positive well reading-compound well reading)/(positive well reading-negative well reading)×100. The corresponding IC50 values were calculated using GraphPad Prism 5.0.

[6] = Cell viability assay (MTT) on normal cell line; conditions: human, MCF-10A normal mammary gland epithelial cells
Procedure: (§7) The viability of the investigated compounds was assessed using the normal human mammary gland epithelial cell line MCF-10A. After four days of incubation on MCF-10A cells with 50 µM of each examined compound, cell viability was assessed using the MTT test[46]^,[47].
(§8) The viability of 7a–o was determined using the normal human mammary gland epithelial (MCF-10A) cell line^46,[47].
(§9) MTT assay was performed to investigate the effect of the synthesized compounds on mammary epithelial cells (MCF-10A). The cells were propagated in medium consisting of Ham's F-12 medium/ Dulbecco's modified Eagle's medium (DMEM) (1:1) supplemented with 10% foetal calf serum (GIBCO, UK), 2 mM glutamine, insulin (10 μg/mL), hydrocortisone (500 ng/mL) and epidermal growth factor (20 ng/mL). Trypsin ethylenediamine tetra acetic acid (EDTA) was used to passage the cells after every 2-3 days. 96-well flat-bottomed cell culture plates were used to seed the cells at a density of 10^4 cells mL^-1. The medium was aspirated from all the wells of culture plates after 24 h followed by the addition of synthesized compounds (in 200 μL medium to yield a final concentration of 0.1% (v/v) dimethyl sulfoxide) into individual wells of the plates. Four wells were designated to a single compound. The plates were allowed to incubate at 37°C for 96 h. Afterwards, the medium was aspirated and 3-[4,5-dimethylthiazol-2-yl]-2,5-diphenyltetrazolium bromide (MTT) (0.4 mg/mL) in medium was added to each well and subsequently incubated for 3 h. The medium was aspirated and 150 μL dimethyl sulfoxide (DMSO) was added to each well. The plates were vortexed followed by the measurement of absorbance at 540 nm on a microplate reader.

VEGFR-2 kinase = conditions: read-out: VEGFR-2 kinase IC50; cited from earlier work
EGFR^T790M = test system: EGFR^T790M; set-up: method as in PMID 26275028; conditions: cited from earlier work
EGFR^L858R = test system: EGFR^L858R; set-up: method as in PMID 26275028; conditions: cited from earlier work
wild-type EGFR = test system: wild-type EGFR; set-up: method as in PMID 26275028; conditions: cited from earlier work
MCF-10A = conditions: 50 µM
Procedure: as §7, §8, §9

Sequence of VEGFR-2 (P35968 20-1356): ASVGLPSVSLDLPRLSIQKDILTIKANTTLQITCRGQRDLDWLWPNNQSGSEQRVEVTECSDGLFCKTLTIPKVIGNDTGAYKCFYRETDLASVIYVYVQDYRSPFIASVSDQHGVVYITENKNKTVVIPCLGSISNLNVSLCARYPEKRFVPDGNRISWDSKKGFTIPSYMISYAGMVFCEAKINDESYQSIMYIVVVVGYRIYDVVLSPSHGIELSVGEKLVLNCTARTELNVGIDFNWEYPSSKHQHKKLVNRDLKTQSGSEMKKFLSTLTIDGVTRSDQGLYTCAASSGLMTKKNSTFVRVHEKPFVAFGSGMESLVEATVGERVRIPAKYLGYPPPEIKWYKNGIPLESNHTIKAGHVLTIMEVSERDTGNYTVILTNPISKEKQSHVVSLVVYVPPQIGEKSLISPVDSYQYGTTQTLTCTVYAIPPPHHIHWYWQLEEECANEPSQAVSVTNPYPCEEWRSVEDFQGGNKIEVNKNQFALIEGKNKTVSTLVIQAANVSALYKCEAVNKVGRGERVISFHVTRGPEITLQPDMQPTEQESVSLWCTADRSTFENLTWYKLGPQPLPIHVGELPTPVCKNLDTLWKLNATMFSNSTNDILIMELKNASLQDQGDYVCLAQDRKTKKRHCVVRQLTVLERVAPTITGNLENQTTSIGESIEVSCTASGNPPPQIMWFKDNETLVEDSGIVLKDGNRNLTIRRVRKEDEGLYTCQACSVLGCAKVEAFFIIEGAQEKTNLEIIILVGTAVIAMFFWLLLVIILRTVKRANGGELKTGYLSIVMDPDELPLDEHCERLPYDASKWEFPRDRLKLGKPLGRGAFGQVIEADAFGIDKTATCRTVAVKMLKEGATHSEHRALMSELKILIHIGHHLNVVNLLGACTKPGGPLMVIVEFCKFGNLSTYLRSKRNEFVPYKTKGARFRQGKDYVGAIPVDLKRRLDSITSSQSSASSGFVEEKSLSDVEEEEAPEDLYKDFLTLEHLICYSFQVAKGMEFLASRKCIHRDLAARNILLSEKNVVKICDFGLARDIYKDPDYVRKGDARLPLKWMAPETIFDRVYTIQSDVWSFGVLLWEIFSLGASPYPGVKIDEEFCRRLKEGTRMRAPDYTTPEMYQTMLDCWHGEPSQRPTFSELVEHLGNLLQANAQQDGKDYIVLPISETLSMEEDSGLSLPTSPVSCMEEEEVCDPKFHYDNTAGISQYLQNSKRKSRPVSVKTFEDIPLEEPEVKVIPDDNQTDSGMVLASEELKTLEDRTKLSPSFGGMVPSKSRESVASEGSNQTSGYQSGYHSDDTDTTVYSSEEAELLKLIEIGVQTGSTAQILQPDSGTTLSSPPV

Compound | IC50 ([1]; Homo sapiens, A549) | IC50 ([2]; Homo sapiens, MCF7) | IC50 ([3]; Homo sapiens, PANC-1) | IC50 ([4]; Homo sapiens) | IC50 ([5]; Homo sapiens) | IC50 (EGFR; EGFR inhibition IC50 ± SEM) | IC50 (VEGFR-2) | Bcl-2 level (Bcl-2) | Bax level (Bax) | Bax fold change (Bax) | p53 level (p53) | viability at 96 h, 50 µM [6] | further results
CN(c1ccc2cn(C)nc2c1)c1ccnc(Nc2ccc(OC(F)(F)F)cc2)n1 [Compound IX] | – | – | – | – | – | – | – | – | – | – | – | – | IC50 (VEGFR-2 kinase): 12 nM
C=CC(=O)Nc1cccc(Oc2nc(Nc3n[nH]c4ccccc34)cc(N3CCN(C)CC3)n2)c1 [Compound VIII] | – | – | – | – | – | – | – | – | – | – | – | – | IC50 (EGFR^T790M): 70 nM; IC50 (EGFR^L858R): 500 nM; IC50 (wild-type EGFR): 1700 nM
(E)-5-(ethylsulfonyl)-N′-(3-methoxybenzylidene)-1H-indazole-3-carbohydrazide [Compound 7l] | – | – | – | – | – | – | – | – | – | – | – | – | IC50 ([1]; A-549): 41 ± 3 nM; IC50 ([2]; MCF-7): 43 ± 3 nM; IC50 ([3]; Panc-1): 42 ± 4 nM; IC50 [4]: 42 ± 4 nM; Fold less potent than 7k (GI50) ([5]; GI50 ratio to 7k): 1.7 fold; IC50 [5]: 42 nM; Cell viability % (MCF-10A): 91%; IC50 (EGFR; read-out: EGFR inhibition IC50 ± SEM): 87 ± 5 nM; IC50 (VEGFR-2; read-out: VEGFR-2 inhibition IC50 ± SEM, kinase assay): 45 ± 3 nM

Further lines, with some results ahead:

IC50 ([1]; Homo sapiens, A549) | IC50 ([2]; Homo sapiens, MCF7) | IC50 ([3]; Homo sapiens, PANC-1) | IC50 ([4]; Homo sapiens) | IC50 ([5]; Homo sapiens) | IC50 (EGFR; EGFR inhibition IC50 ± SEM) | IC50 (VEGFR-2) | Compound | Bcl-2 level (Bcl-2) | Bax level (Bax) | Bax fold change (Bax) | p53 level (p53) | viability at 96 h, 50 µM [6] | further results
26 ± 1 nM | 28 ± 1 nM | 26 ± 1 nM | 27 ± 1 nM | 27 nM | 74 ± 4 nM | 27 ± 1 nM | CCS(=O)(=O)c1ccc2[nH]nc(C(=O)N/N=C/c3nc4ccccc4s3)c2c1 [Compound 7j, (E)-N′-(benzo[d]thiazol-2-ylmethylene)-5-(ethylsulfonyl)-1H-indazole-3-carbohydrazide] | 1.50 ± 0.001 ng/mL | 505 ± 3 pg/mL | 8 fold and 8.5 fold | 340 ± 2 pg/mL | 91% | –
24 ± 1 nM | 26 ± 1 nM | 25 ± 1 nM | 24 ± 1 nM | 25 nM | 71 ± 4 nM | 21 ± 1 nM | CCS(=O)(=O)c1ccc2[nH]nc(C(=O)N/N=C/c3ccc(OC)nc3)c2c1 [Compound 7k, (E)-5-(ethylsulfonyl)-N′-((6-methoxypyridin-3-yl)methylene)-1H-indazole-3-carbohydrazide] | 1.20 ± 0.001 ng/mL | 540 ± 3 pg/mL | 9 fold | 371 ± 2 pg/mL | 93% | Fold more potent than erlotinib (MCF-7 IC50) [2]: 1.5 fold; Fold more effective than erlotinib (GI50) ([5]; GI50 ratio to erlotinib): 1.3 fold; Bcl-2 fold reduction (Bcl-2; relative to untreated control): 4.2 fold
29 ± 1 nM | 32 ± 1 nM | 29 ± 1 nM | 29 ± 1 nM | 30 nM | 76 ± 4 nM | 31 ± 2 nM | CCS(=O)(=O)c1ccc2[nH]nc(C(=O)N/N=C/c3ccn(C)n3)c2c1 [Compound 7o, (E)-5-(ethylsulfonyl)-N′-((1-methyl-1H-pyrazol-3-yl)methylene)-1H-indazole-3-carbohydrazide] | 1.80 ± 0.001 ng/mL | 480 ± 2 pg/mL | 8 fold | 285 ± 2 pg/mL | 92% | Fold more potent than erlotinib (MCF-7 IC50) [2]: 1.25 fold
